Patent US11992479B2, “R-fadrozole for use in the treatment of aldostonerism” (priority 2018, dated 2024)
Read-outs that look alike come from different tables or passages of the source. Marks after values point to notes of the source that are not given here.

Key:
[1] = Procedure: The Dynamic Vapour Sorption (DVS) studies were performed using a Surface Measurement Systems Ltd. DVS-1 No Video. The sample was loaded into a balance pan, typically 20-30 mg, and equilibrated at 0% RH. […] After completion of the sorption cycle, the sample was dried using the same method. The software used for data collection was DVSWin v3.01 No Video. Data analysis was performed using DVS Standard Analysis Suite v6.3.0 (Standard).
[2] = system: follicle stimulating hormone (FSH); details: for Serum FSH: mean ± SEM
Procedure: (§1) All of the above assays used for measuring serum estradiol, testosterone, and FSH levels were conducted as described by the manufacture.

testosterone = details: for Serum Testosteron: mean ± SEM
Procedure: as §1

estradiol = details: for Serum Estradiol: mean ± SEM
Procedure: as §1

[3] = 4 mg once daily, Day 1 (08:00 h), pretreatment
[4] = 4 mg once daily, Day 2 (08:00 h)
[5] = 4 mg once daily, Day 9 (08:00 h)
[6] = 8 mg once daily, Day 1 (08:00 h), pretreatment
[7] = 8 mg once daily, Day 2 (08:00 h)
[8] = 8 mg once daily, Day 9 (08:00 h)
[9] = 16 mg once daily, Day 1 (08:00 h), pretreatment
[10] = 16 mg once daily, Day 2 (08:00 h)
[11] = 16 mg once daily, Day 9 (08:00 h)
[12] = once-daily oral dosing with 4, 8, or 16 mg

Compound: N#Cc1ccc([C@H]2CCCc3cncn32)cc1.O=P(O)(O)O [DP13, (R)-(+)-5-(p-cyanophenyl)-5,6,7,8-tetrahydroimidazolium[1,5-a]pyridine dihydrogen phosphate]
- crystalline form upon DVS treatment [1]: crystalline form does not change upon DVS treatment
- Serum FSH [2, 3]: 2.7 ± 0.22 IU/L
- Serum FSH [2, 4]: 2.7 ± 0.27 IU/L
- Serum FSH [2, 5]: 2.7 ± 0.27 IU/L
- Serum FSH [2, 6]: 4.3 ± 0.94 IU/L
- Serum FSH [2, 7]: 4.1 ± 0.79 IU/L
- Serum FSH [2, 8]: 4.1 ± 0.91 IU/L
- Serum FSH [2, 9]: 2.6 ± 0.43 IU/L
- Serum FSH [2, 10]: 2.5 ± 0.43 IU/L
- Serum FSH [2, 11]: 2.5 ± 0.43 IU/L
- effect on circulating FSH [2, 12]: nor increased circulating testosterone or FSH
- Serum Testosteron (testosterone; [3]): 17 ± 1.9 nM/L
- Serum Testosteron (testosterone; [4]): 18 ± 1.9 nM/L
- Serum Testosteron (testosterone; [5]): 15 ± 1.5^b nM/L
- Serum Testosteron (testosterone; [6]): 18 ± 1.7 nM/L
- Serum Testosteron (testosterone; [7]): 21 ± 6.2^a nM/L
- Serum Testosteron (testosterone; [8]): 16 ± 1.4^a nM/L
- Serum Testosteron (testosterone; [9]): 17 ± 1.9 nM/L
- Serum Testosteron (testosterone; [10]): 20 ± 2.0^a nM/L
- Serum Testosteron (testosterone; [11]): 17 ± 1.7 nM/L
- effect on circulating testosterone (testosterone; [12]): nor increased circulating testosterone or FSH
- Serum Estradiol (estradiol; [3]): 98 ± 10.2 pM/L
- Serum Estradiol (estradiol; [4]): 92 ± 9.8 pM/L
- Serum Estradiol (estradiol; [5]): 127 ± 8.3^a,b pM/L
- Serum Estradiol (estradiol; [6]): 90.0 ± 9.5 pM/L
- Serum Estradiol (estradiol; [7]): 90.0 ± 12.1 pM/L
- Serum Estradiol (estradiol; [8]): 113 ± 8.3^a pM/L
- Serum Estradiol (estradiol; [9]): 97.4 ± 15.3 pM/L
- Serum Estradiol (estradiol; [10]): 97.0 ± 9.4 pM/L
- Serum Estradiol (estradiol; [11]): 114.0 ± 8.5 pM/L
- change of estradiol (estradiol; 4 and 8 mg doses after 8 days of treatment): slightly increased
- effect on estradiol (estradiol; [12]): neither inhibited estradiol
